From patent US11866429B2, “Heteroaryl-biphenyl amines for the treatment of PD-L1 diseases” (CHEMOCENTRYX, INC., priority 2019, dated 2024)

Molecular target: human PD-L1 (Homo sapiens (Human), UniProt Q9NZQ7)
Assay: Enzyme-Linked Immunosorbent Assay (ELISA), PD-1/PD-L1 binding
Details: plates coated with human PD-L1; Human PD-1 and biotin added; absorbance at 450 nm
Experimental: 96 Well plates were coated with 1 μg/mL of human PD-L1 (obtained from R&D) in PBS overnight at 4° C. The wells were then blocked with 2% BSA in PBS (W/V) with 0.05% TWEEN-20 for 1 hour at 37° C. The plates were washed 3 times with PBS/0.05% TWEEN-20 and the compounds were serial diluted (1:5) in dilution medium and added to the ELISA plates. Human PD-1 and biotin 0.3 μg/mL (ACRO Biosystems) were added and incubated for 1 hour at 37° C. then washed 3 times with PBS/0.05% TWEEN-20. A second block was performed with 2% BSA in PBS (W/V)/0.05% TWEEN-20 for 10 min at 37° C. and the plates were washed 3 times with PBS/0.05% TWEEN-20. Streptavidin-HRP was added for 1 hour at 37° C. then the plates were washed 3 times with PBS/0.05% TWEEN-20. TMB substrate was added and reacted for 20 min at 37° C. A stop solution (2 N aqueous […]) was added. The absorbance was read at 450 nm using a micro-plate spectrophotometer.

human PD-L1, sequence (Q9NZQ7 19-239): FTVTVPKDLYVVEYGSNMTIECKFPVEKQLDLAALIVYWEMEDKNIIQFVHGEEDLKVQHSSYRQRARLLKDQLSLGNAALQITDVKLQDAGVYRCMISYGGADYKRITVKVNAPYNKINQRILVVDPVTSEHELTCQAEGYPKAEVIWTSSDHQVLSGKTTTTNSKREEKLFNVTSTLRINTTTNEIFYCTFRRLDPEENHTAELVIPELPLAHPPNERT

IC50 [nM]	Structure (SMILES)
< 10	COc1nc(-c2cccc(-c3cccc(Nc4nc(C)nc5cccnc45)c3C)c2Cl)ccc1CN[C@H]1CC[C@@H]1O [Compound 1.018]
< 10	COc1nc(-c2cccc(-c3cccc(Nc4nc(C)nc5cccnc45)c3C)c2Cl)ccc1CNC1CCOCC1 [Compound 1.052]
< 10	COc1nc(-c2cccc(-c3cccc(Nc4nc(C)nc5cccnc45)c3C)c2Cl)ccc1CN1CCCC[C@H]1C(=O)O [Compound 1.036]
< 10	COc1nc(-c2cccc(-c3cccc(Nc4nccc5nccnc45)c3Cl)c2Cl)ccc1CN1CC(C)(C(=O)O)C1 [Compound 1.083]
< 10	COc1nc(-c2cccc(-c3cccc(Nc4nccc5nccnc45)c3Cl)c2Cl)ccc1CN1CC(C(=O)O)C1 [Compound 1.082]
< 10	COc1nc(-c2cccc(-c3cccc(Nc4nc(C)nc5cccnc45)c3C)c2Cl)ccc1CN1CC[C@@H](C(=O)O)C1 [Compound 1.044]
< 10	CCOc1nc(-c2cccc(-c3cccc(Nc4nc(C)nc5cccnc45)c3C)c2Cl)ccc1CNC[C@@H]1CCC(=O)N1 [Compound 1.014]
< 10	COc1nc(-c2cccc(-c3cccc(Nc4nc(C)nc5cccnc45)c3C)c2Cl)ccc1CN1CC(O)C1 [Compound 1.058]
< 10	COc1nc(-c2cccc(-c3cccc(Nc4nc(C)nc5cccnc45)c3C)c2Cl)ccc1CNC1CCNCC1 [Compound 1.019]
< 10	COc1nc(-c2cccc(-c3cccc(Nc4nc(C)nc5cccnc45)c3C)c2Cl)ccc1CNC(C)(C)C(=O)O [Compound 1.030]
< 10	COc1nc(-c2cccc(-c3cccc(Nc4nc(C)nc5cccnc45)c3C)c2Cl)cnc1CNCC1(O)CC1 [Compound 1.005]
< 10	COc1nc(-c2cccc(-c3cccc(Nc4nc(C)nc5cccnc45)c3C)c2Cl)ccc1CN1CC(C)(O)C1 [Compound 1.007]
< 10	COc1nc(-c2cccc(-c3cccc(Nc4nc(C)nc5cccnc45)c3C)c2Cl)ccc1CN1CCC[C@@H](C(=O)O)C1 [Compound 1.022]
< 10	COc1nc(-c2cccc(-c3cccc(Nc4nc(C)nc5cccnc45)c3C)c2Cl)ccc1CNC(C)C [Compound 1.029]
< 10	COc1nc(-c2cccc(-c3cccc(Nc4nc(C)nc5cccnc45)c3C)c2Cl)ccc1CN[C@H]1CCOC[C@H]1O [Compound 1.047]
< 10	COc1nc(-c2cccc(-c3cccc(Nc4nccc5nccnc45)c3Cl)c2Cl)ccc1CN[C@@H]1CNC(=O)C1 [Compound 1.081]
< 10	COc1nc(-c2cccc(-c3cccc(Nc4nc(C)nc5cccnc45)c3C)c2Cl)ccc1CNCC(=O)O [Compound 1.031]
< 10	COc1nc(-c2cccc(-c3cccc(Nc4nc(C)nc5cccnc45)c3C)c2Cl)ccc1CN1CCC(O)CC1 [Compound 1.043]
< 10	COc1nc(-c2cccc(-c3cccc(Nc4nc(C(C)C)nc5cccnc45)c3C)c2Cl)ccc1CNC[C@@H]1CCC(=O)N1 [Compound 1.068]
< 10	CCc1nc(-c2cccc(-c3cccc(Nc4nc(C)nc5cccnc45)c3C)c2Cl)ccc1CNC[C@@H]1CCC(=O)N1 [Compound 1.046]
< 10	COc1nc(-c2cccc(-c3cccc(Nc4nccc5nccnc45)c3Cl)c2Cl)cnc1CNC[C@@H]1CCC(=O)N1 [Compound 1.004]
< 10	COc1nc(-c2cccc(-c3cccc(Nc4nc(C)nc5cccnc45)c3C)c2Cl)ccc1CNCC(C)(C)CO [Compound 1.051]
< 10	COc1nc(-c2cccc(-c3cccc(Nc4nc(C)nc5cccnc45)c3C)c2Cl)ccc1CN[C@H]1CCC(=O)NC1 [Compound 1.023]
< 10	COc1nc(-c2cccc(-c3cccc(Nc4nc(C)nc5cccnc45)c3C)c2Cl)ccc1CNCC(C)(C)O [Compound 1.061]

Continued, molecule first:

Structure (SMILES)	IC50 [nM]
COc1nc(-c2cccc(-c3cccc(Nc4nc(C)nc5cccnc45)c3Cl)c2F)ccc1CNC[C@@H]1CCC(=O)N1 [Compound 1.011]	< 10
COc1nc(-c2cccc(-c3cccc(Nc4nc(C)nc5cccnc45)c3C)c2Cl)ccc1CN(C)[C@@H]1CCOC[C@@H]1O [Compound 1.042]	< 10
CCc1nc(-c2cccc(-c3cccc(Nc4nc(C)nc5cccnc45)c3C)c2Cl)ccc1CN[C@@H]1CCOC[C@@H]1O [Compound 1.045]	< 10
COc1nc(-c2cccc(-c3cccc(Nc4nc(C)nc5cccnc45)c3C)c2Cl)ccc1CNCCO [Compound 1.057]	< 10
COc1nc(-c2cccc(-c3cccc(Nc4nc(C(F)(F)F)nc5cccnc45)c3C)c2Cl)ccc1CNC[C@@H]1CCC(=O)N1 [Compound 1.070]	< 10
COc1nc(-c2cccc(-c3cccc(Nc4nccc5nccnc45)c3Cl)c2Cl)cnc1CN1CC(C)(C(=O)O)C1 [Compound 1.003]	< 10
COc1nc(-c2cccc(-c3cccc(Nc4nccc5nccnc45)c3Cl)c2Cl)cnc1CN1CC(C(=O)O)C1 [Compound 1.002]	< 10
Cc1cc2nccnc2c(Nc2cccc(-c3cccc(-c4ccc(CNC[C@@H]5CCC(=O)N5)c(O)n4)c3Cl)c2C)n1 [Compound 1.067]	10 to 1000
COc1nc(-c2cccc(-c3cccc(Nc4nc(C)nc5cccnc45)c3C)c2Cl)ccc1CNCC(N)=O [Compound 1.041]	< 10
COc1nc(-c2cccc(-c3cccc(Nc4nc(C)nc5cccnc45)c3C)c2Cl)ccc1CN[C@H]1CNC(=O)C1 [Compound 1.024]	< 10
COc1nc(-c2cccc(-c3cccc(Nc4nc(C)nc5cccnc45)c3C)c2Cl)ccc1CN1CC(C(=O)O)C1 [Compound 1.066]	< 10
COc1nc(-c2cccc(-c3cccc(Nc4nc(C)nc5cccnc45)c3C)c2Cl)ccc1CNCCn1ccnc1 [Compound 1.032]	< 10
COc1nc(-c2cccc(-c3cccc(Nc4nc(C)nc5cccnc45)c3C)c2Cl)ccc1CN[C@H]1CCOC1 [Compound 1.059]	< 10
COc1nc(-c2cccc(-c3cccc(Nc4nc(C)nc5cccnc45)c3C)c2Cl)ccc1CNCc1ncc[nH]1 [Compound 1.025]	< 10
COc1nc(-c2cccc(-c3cccc(Nc4nc(C)nc5cccnc45)c3C)c2Cl)ccc1CN1CCOCC1 [Compound 1.049]	< 10
COc1nc(-c2cccc(-c3cccc(Nc4nc(C)nc5cccnc45)c3C)c2Cl)ccc1CNCC(C)(C)C(=O)O [Compound 1.060]	< 10
COc1nc(-c2cccc(-c3cccc(Nc4nc(C)nc5cccnc45)c3C)c2Cl)ccc1CNC[C@H](O)CC(=O)O [Compound 1.016]	< 10
COc1nc(-c2cccc(-c3cccc(Nc4nc(C)nc5cccnc45)c3C)c2Cl)ccc1CN1CC[C@@](C)(O)C1 [Compound 1.034]	< 10
COc1nc(-c2cccc(-c3cccc(Nc4nc(C)nc5cccnc45)c3C)c2Cl)ccc1CNC1CNC1 [Compound 1.017]	< 10
COc1nc(-c2cccc(-c3cccc(Nc4nc(C)nc5cccnc45)c3C)c2Cl)ccc1CNC(CO)(CO)CO [Compound 1.062]	< 10
COc1nc(-c2cccc(-c3cccc(Nc4nc(C)nc5cccnc45)c3Cl)c2Cl)ccc1CNC[C@@H]1CCC(=O)N1 [Compound 1.074]	< 10
COc1nc(-c2cccc(-c3cccc(Nc4nc(C)nc5cccnc45)c3C)c2Cl)ccc1CNCC(C)(C)C(N)=O [Compound 1.015]	< 10
COc1nc(-c2cccc(-c3cccc(Nc4nc(C)nc5cccnc45)c3C)c2Cl)ccc1CNC(C)(C)CCO [Compound 1.050]	< 10
